Measurements reported in patent US20110126300A1, “High Through-Put Method of Screening Compounds for Pharmacological Activity” (priority 2005, published 2011).

How the values were obtained:
[1] = test system: wild type zebrafish larvae; experiment: PTZ-induced seizure assay in larvae; type: in vivo; conditions: PTZ 15 uM, 4 day post-fertilization wild type larvae
Procedure: To assay small molecule compounds with anti-seizure activity, 4 day post-fertilization wild type zebrafish were placed in 96-well plates (5 larvae per well) and incubated in the test compounds (20 uM) as above, for either 2 or 12 hrs. Subsequently, the larvae were administered pentylenetetrazole (PTZ; 15 uM) and observed for seizure activity (i.e., a change in phenotype). […] This activity persists for approximately 20 minutes and then culminates in a tonic convulsion that abolishes movement and normal posture. Prior to or after onset of the seizure activity, the small molecule test compound was administered to the larvae and the response of the fish assessed visually or by digital recording.
Scoring was based upon whether the test compound was able to inhibit or modify the seizure activity of the larvae.

[2] = test system: meltdown (mlt) mutant larvae; experiment: Rescue of the mlt mutant phenotype by compound exposure, read out with fluorescent lipid PED6 in the posterior intestine; type: in vivo, zebrafish (Danio rerio)
Procedure: For testing, the embryos were then cultured in the presence of the test compound(s) overnight or up to 96 hrs at 28.5° C., for example, in 96-well plates. Mutant larvae and mutants reared in the presence of small molecule compounds may be bathed in the fluorescent lipid PED6 or fluorescent microspheres, which outline the digestive tract lumen and can be seen by visual inspection or by a commercially-available fluorescent plate scanner, typically by 96-120 hours post fertilization (hpf). Although signals that regulate regional epithelial differentiation and renewal are poorly understood, in meltdown (mlt), the posterior gut is disorganized and bears an expanded mesenchyme (Briggs, Am. J. Physiol. Regulatory Integrative Comp. Physiol. 282: R3-9 (2002)). Neither fluorescent marker enters the posterior intestine of mlt mutants because the intestinal lumen is obstructed by the massive cysts that form in all mlt mutant larvae.
No effect: A test compound was considered to have no effect if none of the mlt mutant larvae show fluorescent lipid in the posterior intestine.
When no mutants were observed, one possibility was that the test compound produced a complete rescue of the mutant phenotype. The other possibility was that there were never any mutants present in the well. When embryos derived from matings of heterozygous mlt/+ fish are used for these assays, then with 8-10 embryos per test compound, the latter possibility may be calculated to occur with a frequency of 0.01%.
Partial rescue: Partial rescue was considered when mutants or the mutant phenotype was present, but the fluorescent markers were present in the posterior intestine.
In the present assays, mosaic zebrafish were generated in which homozygous mlt/mlt cells have replaced the native germline of wild type fish. 100% of the offspring derived from pair wise matings of such modified zebrafish are homozygous for the mlt mutation. Thus, all of the larvae placed in each well of the 96-well plate are mlt mutants, greatly enhancing the efficiency of each assay. […]

[3] = test system: wild type zebrafish larvae; experiment: Wild type larvae exposed to compound, PED6 imaging of intestine contour; type: in vivo, zebrafish (Danio rerio); conditions: 6 dpf wild type larvae, 2 hour exposure to PED6; FIG. 2B
Procedure: FIGS. 2A-2D photographically show lateral fluorescent images of 6 dpf zebrafish larvae following 2 hour exposure to fluorescent lipid PED6.
For rescue experiments, 1-cell stage embryos derived from pair-wise mating of heterozygous mlt carriers were injected with either the MT-mmpa, morpholino alone or in combination with the β4 integrin morpholino. Subsequently, all embryos were injected with either 0.375 or 0.1875 pg of tissue inhibitor of metalloproteinases 2 (TIMP2 inhibitor) (PF021; Oncogene Research Products, now Calbiochem, San Diego, Calif.) at 48 hpf. Alternatively, 2.5 dpf or 3 dpf larvae were incubated in the TGF-β Type I receptor inhibitor SB 431542, 100 μM in embryo media. Morpholino sequences were as identified in Wallace et al., supra, 2005b for smooth muscle myosin heavy chain, β4 integrin, and MT-mmpa.

Structure (SMILES) | duration of seizure activity before tonic convulsion [1] | posterior intestinal PED6 fluorescence and intestine contour in mlt larvae ([2]; 6 dpf mlt larvae, 2 hour exposure to PED6, FIG. 2D) | rescue of the mlt mutant phenotype (fluorescent lipid in posterior intestine) ([2]; compound added ~60 hpf, PED6 at 96 hpf, imaged at 120 hpf) | intestinal cysts versus untreated mlt larvae ([2]; mlt larvae scored at 5 dpf, treated at 2.5 dpf or 3 dpf, 100 μM in embryo media) | intestine contour in wild type larvae [3]
C1CCc2nnnn2CC1 [PTZ, pentylenetetrazole] | approximately 20 minutes | – | – | – | –
NC(=O)c1ccc(-c2nc(-c3ccc4c(c3)OCO4)c(-c3ccccn3)[nH]2)cc1 [SB431542] | – | posterior intestinal fluorescence and the contour is normal | rescuing the mutant phenotype | far fewer cysts than untreated mlt larvae | normal intestine contour
